Earlier results on one compound are cited in US20210121480A1, “STABLE PHARMACEUTICAL COMPOSITIONS CONTAINING ESTRADIOL AND PROGESTERONE FOR ORAL ADMINISTRATION” (SLAYBACK PHARMA LLC, priority 2019, published 2021).

Each structure is given as a SMILES string. ≈ marks a conversion by molar mass, not a printed value.

For the series the following is noted: reported.

Consider `CC(=O)[C@H]1CC[C@H]2[C@@H]3CCC4=CC(=O)CC[C@]4(C)[C@H]3CC[C@]12C` [Progesterone], for which the aqueous solubility (as a rule, the dissolved amount per volume that the medium holds) is 7 ± 0 µg/mL (≈ 22.3 µM).
